Patent US4038317A, “O-aminoalkyl oximes” (Seperic, priority 1975, dated 1977)
Structures can show the parent of a compound that is named as a salt. Where two headings read alike, the source gives them in different places.

Columns and labels:
action of isoprenaline = assay: inhibition of the action of isoprenaline on cardiac parameters in anesthetized dog; format: in vivo; conditions: Canis lupus familiaris, isoprenaline 0.02 micromole/kg
Text: This beta-blocking activity is again apparent in vivo. […] The following Table sets forth the dosages which inhibit 50% of the effect of 0.02 micromole/kg of isoprenaline on blood pressure, on cardiac rhythm and on the contractile strength of the heart.

[1] = test system: isolated trachea of guinea-pig; assay: isolated trachea of guinea-pig: antagonism of isoprenaline relaxation (PA2); format: cell-based; conditions: Cavia porcellus, agonist isoprenaline, PA2 = cologarithm of antagonist concentration requiring twice as much agonist
Text: on the isolated trachea of guinea-pigs: they inhibit the relaxation due to the action of this same isoprenaline.
(§1) The following Table gives the PA2 determined with respect to this agonist (PA2 is the cologarithm of the antagonist concentration in the presence of which it is required to use twice as much agonist than in its absence to obtain the same effect; vide, on the subject; Calcul des PA2, Fiche Technique n° 16, J. Pharmacol. Paris, 1971, 2, 3, 373-380).

[2] = test system: isolated auricle of guinea-pig; assay: isolated auricle of guinea-pig: antagonism of isoprenaline (PA2); format: cell-based; conditions: Cavia porcellus, agonist isoprenaline, PA2 = cologarithm of antagonist concentration requiring twice as much agonist
Text: as §1

[3] = blood pressure, read-out: 50% inhibiting dosage of the action of isoprenaline: Blood pressure
[4] = cardiac rhythm, read-out: 50% inhibiting dosage of the action of isoprenaline: Rhythm
[5] = contractile strength of the heart, read-out: 50% inhibiting dosage of the action of isoprenaline: Contractile strength
[6] = read-out: PA2 Chronotropic effect (converted)
[7] = read-out: PA2 Inotropic effect (converted)

CC(C)(C)NCC(O)CON=C1c2ccccc2-c2ccccc21 (centres unmarked) [Example 1, 9-(3-tert.butylamino-2-hydroxypropoxy)imino-fluorene hydrochloride]
ED50 (action of isoprenaline; [3]): 0.2 µmol/kg
ED50 (action of isoprenaline; [4]): 3 µmol/kg
ED50 (action of isoprenaline; [5]): 3 µmol/kg

CC(=NOCC(O)CNC(C)(C)C)c1ccc(Cl)cc1 (centres unmarked) [Example 2, 4-chloro-acetophenone-0-(3-tert.butylamino-2-hydroxy-propyl)oxime hydrochloride]
ED50 (action of isoprenaline; [3]): 1 µmol/kg
ED50 (action of isoprenaline; [4]): > 10 µmol/kg
ED50 (action of isoprenaline; [5]): 10 µmol/kg
Kb [1]: 245 nM
Kb [2, 6]: 26.3 nM
Kb [2, 7]: 37.2 nM

CC(C)NCC(O)CON=Cc1ccc2ccccc2c1 (centres unmarked) [Example 3, 2-naphthalene carbaldehyde-0-(3-isopropylamino-2-hydroxy-propyl)-oxime hydrochloride]
Kb [1]: 0.427 nM
Kb [2, 6]: 295 nM
Kb [2, 7]: 115 nM

CC(C)(C)NCC(O)CON=C(c1ccccc1)c1ccccc1 (centres unmarked) [Example 4, benzophenone-0-(3-tert.butylamino-2-hydroxy-propyl)-oxime hydrochloride]
Kb [1]: 11 nM
Kb [2, 6]: 162 nM
Kb [2, 7]: 427 nM

CC(C)NCC(O)CON=C1c2ccccc2-c2ccccc21 (centres unmarked) [Example 9]
ED50 (action of isoprenaline; [3]): 1.3 µmol/kg
ED50 (action of isoprenaline; [4]): > 17 µmol/kg
ED50 (action of isoprenaline; [5]): > 17 µmol/kg
Kb [1]: 166 nM
Kb [2, 6]: 40.7 nM
Kb [2, 7]: 79.4 nM

CC(C)NCC(O)CON=c1c2ccccc2oc2ccccc12 (centres unmarked) [Example 10]
Kb [1]: 155 nM
Kb [2, 6]: 79.4 nM
Kb [2, 7]: 219 nM

CC(C)NCC(O)CON=C1CCc2ccccc21 (centres unmarked) [Example 12]
Kb [2, 6]: 363 nM
Kb [2, 7]: 513 nM

CC(=NOCC(O)CNC(C)C)c1ccccc1 (centres unmarked) [Example 13]
Kb [1]: 28.8 nM
Kb [2, 6]: 229 nM
Kb [2, 7]: 186 nM

CC(C)NCC(O)CON=C(c1ccccc1)c1ccccc1 (centres unmarked) [Example 14]
Kb [1]: 32.4 nM
Kb [2, 6]: 162 nM
Kb [2, 7]: 191 nM

CC(C)NCC(O)CON=C1CCCc2ccccc21 (centres unmarked) [Example 15]
Kb [1]: 12.6 nM
Kb [2, 6]: 676 nM
Kb [2, 7]: 759 nM

CC(C)NCC(O)CON=Cc1ccccc1 (centres unmarked) [Example 16]
Kb [1]: 129 nM
Kb [2, 6]: 3020 nM
Kb [2, 7]: 2400 nM

CC(=NOCC(O)CNC(C)(C)C)c1ccc(C)cc1 (centres unmarked) [Example 17]
Kb [1]: 12.9 nM
Kb [2, 6]: 14.8 nM
Kb [2, 7]: 13.8 nM

CC(C)(C)NCC(O)CON=C1CCCc2ccccc21 (centres unmarked) [Example 18]
ED50 (action of isoprenaline; [3]): 0.05 µmol/kg
ED50 (action of isoprenaline; [4]): > 1 µmol/kg
ED50 (action of isoprenaline; [5]): > 1 µmol/kg
Kb [1]: 0.631 nM
Kb [2, 6]: 70.8 nM
Kb [2, 7]: 28.8 nM

CC(C)(C)NCC(O)CON=Cc1ccccc1 (centres unmarked) [Example 19]
Kb [1]: 589 nM
Kb [2, 6]: 550 nM
Kb [2, 7]: 269 nM

CC(=NOCC(O)CNC(C)(C)C)c1ccccc1Cl (centres unmarked) [Example 20]
ED50 (action of isoprenaline; [3]): 0.07 µmol/kg
ED50 (action of isoprenaline; [4]): 1 µmol/kg
ED50 (action of isoprenaline; [5]): 0.7 µmol/kg
Kb [1]: 13.8 nM
Kb [2, 6]: 4.57 nM
Kb [2, 7]: 4.27 nM

CC(=NOCC(O)CNC(C)(C)C)c1ccccc1 (centres unmarked) [Example 21]
Kb [1]: 24 nM
Kb [2, 6]: 200 nM
Kb [2, 7]: 117 nM

COc1ccc(C(C)=NOCC(O)CNC(C)(C)C)cc1 (centres unmarked) [Example 22]
Kb [1]: 1.82 nM
Kb [2, 6]: 14.1 nM
Kb [2, 7]: 11.5 nM

CC(=NOCC(O)CNC(C)(C)C)c1ccc([N+](=O)[O-])cc1 (centres unmarked) [Example 23]
ED50 (action of isoprenaline; [3]): 0.1 µmol/kg
ED50 (action of isoprenaline; [4]): 3 µmol/kg
ED50 (action of isoprenaline; [5]): 3 µmol/kg
Kb [1]: 28.8 nM
Kb [2, 6]: 34.7 nM
Kb [2, 7]: 25.1 nM

CC(=NOCC(O)CNC(C)(C)C)c1ccccc1C (centres unmarked) [Example 24]
Kb [1]: 12.6 nM
Kb [2, 6]: 219 nM
Kb [2, 7]: 204 nM

CC(=NOCC(O)CNC(C)(C)C)c1ccc(Br)cc1 (centres unmarked) [Example 25]
Kb [1]: 3.09 nM
Kb [2, 6]: 26.3 nM
Kb [2, 7]: 12.6 nM

CC(=NOCC(O)CNC(C)(C)C)c1cccc(C)c1 (centres unmarked) [Example 26]
Kb [1]: 5.01 nM
Kb [2, 6]: 7.76 nM
Kb [2, 7]: 7.94 nM

CC(=NOCC(O)CNC(C)(C)C)c1ccc(N)cc1 (centres unmarked) [Example 27]
Kb [1]: 79.4 nM
Kb [2, 6]: 22.9 nM
Kb [2, 7]: 14.5 nM

CC(C)(C)NCC(O)CON=Cc1ccc2ccccc2c1 (centres unmarked) [Example 28]
Kb [1]: 42.7 nM
Kb [2, 6]: 35.5 nM
Kb [2, 7]: 32.4 nM

CC(=NOCC(O)CNC(C)(C)C)c1ccc(C#N)cc1 (centres unmarked) [Example 31]
Kb [1]: 102 nM
Kb [2, 6]: 120 nM
Kb [2, 7]: 123 nM
